Here are results for four compounds from publication PMC4666645 (PLoS Pathogens, 2015).

For orientation: EC50 means the concentration at which the effect is half-maximal.

One test concerns the target Hco-26/27 receptor (Haemonchus contortus, UniProt A9XX30+S4VAP0). The experiment in a line: cell-based. The source says:
In order to investigate if the overlapping expression contributed to functional receptors, we co-expressed Hco-ACR-26 and Hco-ACR-27 in Xenopus laevis oocytes. We have previously reported that the functional expression of nematode muscle AChRs in Xenopus oocytes requires the addition of ancillary proteins. Therefore, cRNAs encoding the subunits Hco-ACR-26 and Hco-ACR-27, in combination with three ancillary proteins (Hco-ric-3.1, Hco-unc-74 and Hco-unc-50) were co-injected into Xenopus oocytes. […] Subsequently, different cRNA combinations were injected into Xenopus oocytes in order to determine the minimal subunit combination leading to the expression of a functional receptor and verify the ancillary factor requirement.
The subunit stoichiometry has been previously reported to impact the pharmacological properties of some nematode AChRs expressed in Xenopus oocytes.
(§1) H. contortus and P. equorum acr-26 and acr-27 cDNAs were PCR-amplified using primers containing a restriction site in order to be sub-cloned into the expression vector pTB207 that is suitable for in vitro transcription. Primers are listed in S3 Table. The resulting plasmids were linearized with the NheI restriction enzyme (Fermantas) and used as templates for cRNA synthesis using the T7 mMessage mMachine kit (Ambion). Xenopus laevis ovaries were obtained from the University of Rennes, France (CRB Xenope) and defolliculated using 2 mg/ml collagenase type II (Gibco) in the incubation solution containing: 100 mM NaCl, 2 mM KCl, 1.8 mM CaCl2.2H2O, 1 mM MgCl2.6H2O, 5 mM HEPES, 2.5 mM C3H3NaO3, pH 7.5, supplemented with penicillin 100 U/mL and streptomycin 100 μg/mL). The oocytes were injected in the animal pole with a total volume of 36 nL of cRNA mix containing 50 ng/μL of each cRNA in RNase-free water using the Drummond nanoject II microinjector. Microinjected oocytes were kept at 20°C in incubation medium for 4 days to allow the receptors expression. Two-electrode voltage-clamp recordings were carried out using an Oocyte Clamp OC-725C amplifier (Warner instrument) in oocytes being voltage-clamped at -60mV. All agonist preparations were prepared with recording buffer (100 mM NaCl, 2.5 mM KCl, 1 mM CaCl2.2H2O, 5 mM HEPES, pH 7.3). Currents were recorded and analyzed using the pCLAMP 10.4 package (Molecular Devices).

The target in the next test is Peq-26/27 receptor (Parascaris equorum, UniProt A0A0U2ES47+A0A0U2ES58). In words: cell-based. As to the method:
In order to determine if ACR-26 and ACR-27 subunits from other parasitic nematodes species could also form functional receptors when expressed in Xenopus oocyte, Peq-acr-26 and Peq-acr-27 cRNAs from the distantly related P. equorum (Clade III) were co-injected in combination with Hco-ric-3.1, Hco-unc-74 and Hco-unc-50 cRNAs. Four days after injection, we observed robust expression of a functional AChR responding to 100 μM ACh (Fig 6B). […] This novel heteropentameric AChR was named Peq-26/27.
as §1

The mark [1] stands for this setting: 100 μM agonist, normalized to 100 μM ACh current, equal subunit ratio.
The mark [2] stands for this setting: read-out: Relative maximal current (Imax) normalized to 100 μM acetylcholine, cRNA ratio 1:1 26/27, 100 μM agonist.

Counter-ions that a name gives are not always drawn. Like-named read-outs stand apart in the source and are kept apart here.

Sequence of Hco-26/27 receptor (A9XX30 entry or part of it): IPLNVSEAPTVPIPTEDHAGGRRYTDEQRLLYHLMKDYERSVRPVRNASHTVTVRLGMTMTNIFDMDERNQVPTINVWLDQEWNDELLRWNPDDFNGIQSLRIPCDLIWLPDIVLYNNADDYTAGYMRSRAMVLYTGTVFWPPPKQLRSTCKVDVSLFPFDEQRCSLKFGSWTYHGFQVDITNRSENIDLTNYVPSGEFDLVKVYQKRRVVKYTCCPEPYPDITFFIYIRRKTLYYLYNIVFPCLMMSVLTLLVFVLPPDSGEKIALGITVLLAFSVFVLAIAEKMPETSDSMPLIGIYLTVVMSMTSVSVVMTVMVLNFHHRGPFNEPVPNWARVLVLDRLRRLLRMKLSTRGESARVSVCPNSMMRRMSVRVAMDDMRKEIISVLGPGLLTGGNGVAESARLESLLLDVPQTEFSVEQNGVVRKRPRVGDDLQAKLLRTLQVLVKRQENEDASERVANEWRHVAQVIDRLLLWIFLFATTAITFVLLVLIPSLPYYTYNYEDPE
Sequence of Hco-26/27 receptor (S4VAP0 entry or part of it): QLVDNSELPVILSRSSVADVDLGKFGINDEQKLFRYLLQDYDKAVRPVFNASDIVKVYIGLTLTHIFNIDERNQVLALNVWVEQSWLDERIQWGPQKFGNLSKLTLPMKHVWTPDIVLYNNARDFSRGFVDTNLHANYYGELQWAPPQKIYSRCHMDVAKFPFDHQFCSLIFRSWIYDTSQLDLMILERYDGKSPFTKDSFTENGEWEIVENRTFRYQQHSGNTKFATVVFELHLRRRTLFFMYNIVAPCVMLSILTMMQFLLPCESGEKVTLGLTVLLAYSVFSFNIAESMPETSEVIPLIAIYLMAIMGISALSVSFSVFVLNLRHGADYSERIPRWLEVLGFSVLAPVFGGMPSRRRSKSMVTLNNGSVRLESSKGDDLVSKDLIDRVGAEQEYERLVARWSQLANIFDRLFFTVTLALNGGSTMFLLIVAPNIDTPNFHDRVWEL
Sequence of Peq-26/27 receptor (A0A0U2ES58 entry or part of it): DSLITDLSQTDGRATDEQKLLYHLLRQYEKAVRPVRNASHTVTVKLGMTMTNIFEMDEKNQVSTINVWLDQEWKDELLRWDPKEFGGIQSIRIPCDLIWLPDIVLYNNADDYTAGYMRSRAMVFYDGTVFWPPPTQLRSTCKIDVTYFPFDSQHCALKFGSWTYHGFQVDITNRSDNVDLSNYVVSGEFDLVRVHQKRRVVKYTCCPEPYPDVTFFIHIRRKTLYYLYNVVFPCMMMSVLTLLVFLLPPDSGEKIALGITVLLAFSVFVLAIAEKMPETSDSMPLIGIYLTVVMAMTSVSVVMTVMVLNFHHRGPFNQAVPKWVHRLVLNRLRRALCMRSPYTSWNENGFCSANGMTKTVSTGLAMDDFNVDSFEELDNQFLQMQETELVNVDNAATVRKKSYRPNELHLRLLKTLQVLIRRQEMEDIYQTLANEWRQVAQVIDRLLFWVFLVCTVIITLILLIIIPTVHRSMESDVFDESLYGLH
Sequence of Peq-26/27 receptor (A0A0U2ES47 entry or part of it): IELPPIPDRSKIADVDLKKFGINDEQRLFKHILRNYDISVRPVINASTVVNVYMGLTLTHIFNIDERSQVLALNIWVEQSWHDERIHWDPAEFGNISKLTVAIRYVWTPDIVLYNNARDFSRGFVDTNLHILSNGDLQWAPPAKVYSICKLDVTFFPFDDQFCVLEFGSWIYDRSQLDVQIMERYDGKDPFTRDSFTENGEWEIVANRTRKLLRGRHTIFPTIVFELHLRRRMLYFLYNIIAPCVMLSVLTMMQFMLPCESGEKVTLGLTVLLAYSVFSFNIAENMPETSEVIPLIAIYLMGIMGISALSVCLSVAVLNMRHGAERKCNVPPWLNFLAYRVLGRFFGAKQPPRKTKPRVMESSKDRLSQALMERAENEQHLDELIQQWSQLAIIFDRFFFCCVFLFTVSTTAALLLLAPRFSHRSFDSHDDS

For the compound `CC(=O)OCC[N+](C)(C)C` [ACh, Acetylcholine chloride], the values for the EC50 on Hco-26/27 receptor and on Peq-26/27 receptor were 80.1 ± 1.1 µM and 34.9 ± 1.1 µM, respectively. The Emax at 100 µM at Hco-26/27 receptor (cRNA ratio 1:1 26/27, 100 μM agonist, read-out: Relative maximal current (Imax) normalized to 100 μM acetylcholine) turned out to be 100%; on Hco-26/27 receptor (cRNA ratio 1:5 26/27, 100 μM agonist, read-out: Relative maximal current (Imax) normalized to 100 μM acetylcholine), 100%; on Hco-26/27 receptor (cRNA ratio 5:1 26/27, 100 μM agonist, read-out: Relative maximal current (Imax) normalized to 100 μM acetylcholine), 100%.

As for `C[N+](C)(CCOc1ccccc1)Cc1ccccc1` [Beph, bephenium], the “Current elicited, % of ACh response” value at Hco-26/27 receptor (setting [1]) is “insensitive”. The Emax at 100 µM was 3.21 ± 1.61% on Hco-26/27 receptor (setting [2]) and 2.26 ± 2.26% at Hco-26/27 receptor (read-out: Relative maximal current (Imax) normalized to 100 μM acetylcholine, cRNA ratio 1:5 26/27, 100 μM agonist).

Turning to `CN1CCC[C@H]1c1cccnc1` [Nic, (-)-nicotine hydrogen tartrate], the “Current elicited, % of ACh response” value is given as “insensitive” at Hco-26/27 receptor and “insensitive” on Peq-26/27 receptor (100 μM agonist, normalized to 100 μM ACh current).

Take `CN1CCCN=C1/C=C/c1cccc(O)c1` [Oxa, oxantel]: at Hco-26/27 receptor (setting [1]), the “Current elicited, % of ACh response” value was “insensitive”. The Emax at 100 µM at Hco-26/27 receptor (setting [2]) was 0.95 ± 0.95%.
